Laboratory results as given in ChEMBL document CHEMBL3885861, “Open TG-GATES”.

Species on record: Rattus norvegicus
Experiment: Open TG-GATES - Regimen: Daily Repeat
Format: toxicity, organism-based, Sprague-Dawley
Design: regimen Daily Repeat, gender Male, age 6 weeks
Conditions: in vivo, po, 300 mg/kg, route gavage, dose level Middle; for APTT / Bas / Eos / Fbg / Hb / Ht / Lym / MCH / MCHC / MCV / Mono / Neu / PT / Plat / RBC / Ret / WBC: tissue Blood; for KIDNEY_L / KIDNEY_R / KIDNEY_TOTAL: tissue Kidney; for LIVER: tissue Liver; for A/G / ALP / ALT / AST / BUN / CRE / Ca / Cl / DBIL / GLC / IP / K / LDH / Na / PL / RALB / TBIL / TC / TG / TP / gamma-GTP: tissue Plasma

**Q.** What does the source list for `CC(C)(S)[C@@H](N)C(=O)O` [PENICILLAMINE]?
**A.** TERMINAL_BW (72 h, time 3 day): 235.2 g; APTT (72 h, time 3 day): 17.2 s; Bas (72 h, time 3 day): 0.4%; Eos (72 h, time 3 day): 1%; Fbg (72 h, time 3 day): 301.4 mg/dL; Hb (72 h, time 3 day): 13.7 g/dL; Ht (72 h, time 3 day): 42.2%; Lym (72 h, time 3 day): 79.2%; MCH (72 h, time 3 day): 20.9 pg; MCHC (72 h, time 3 day): 32.6%; MCV (72 h, time 3 day): 64.1 fL; Mono (72 h, time 3 day): 3.2%; Neu (72 h, time 3 day): 15.4%; PT (72 h, time 3 day): 14.1 s; Plat (72 h, time 3 day): 114.9 x10_4/uL; RBC (72 h, time 3 day): 658.6 x10_4/ul; Ret (72 h, time 3 day): 7.6%; WBC (72 h, time 3 day): 91.9 x10_2/uL; KIDNEY_L (72 h, time 3 day): 1 g; KIDNEY_R (72 h, time 3 day): 1 g; KIDNEY_TOTAL (72 h, time 3 day): 2 g; LIVER (72 h, time 3 day): 11.1 g; A/G (72 h, time 3 day): 0.9; ALP (72 h, time 3 day): 1461.8 IU/L; ALT (72 h, time 3 day): 40.4 IU/L; AST (72 h, time 3 day): 66.2 IU/L; BUN (72 h, time 3 day): 14.4 mg/dL; CRE (72 h, time 3 day): 0.2 mg/dL; Ca (72 h, time 3 day): 11 mg/dL; Cl (72 h, time 3 day): 106.6 meq/L; DBIL (72 h, time 3 day): 0.012 mg/dL; GLC (72 h, time 3 day): 181.6 mg/dL; IP (72 h, time 3 day): 7.2 mg/dL; K (72 h, time 3 day): 4 meq/L; LDH (72 h, time 3 day): 102 IU/L; Na (72 h, time 3 day): 144.6 meq/L; PL (72 h, time 3 day): 159.2 mg/dL; RALB (72 h, time 3 day): 2.8 g/dL; TBIL (72 h, time 3 day): 0.028 mg/dL; TC (72 h, time 3 day): 81.2 mg/dL; TG (72 h, time 3 day): 102.8 mg/dL; TP (72 h, time 3 day): 5.8 g/dL; gamma-GTP (72 h, time 3 day): 1 IU/L; TERMINAL_BW ([…], time 7 day): 273.3 g; TERMINAL_BW ([…], time 14 day): 321.5 g; TERMINAL_BW ([…], time 28 day): 390 g; APTT ([…], time 7 day): 16.6 s; Bas ([…], time 7 day): 0%; Eos ([…], time 7 day): 1.4%; Fbg ([…], time 7 day): 377.6 mg/dL; Hb ([…], time 7 day): 13.4 g/dL; Ht ([…], time 7 day): 40.7%; Lym ([…], time 7 day): 75.4%; MCH ([…], time 7 day): 20.6 pg; MCHC ([…], time 7 day): 33.1%; MCV ([…], time 7 day): 62.4 fL; Mono ([…], time 7 day): 3.6%; Neu ([…], time 7 day): 18.8%; PT ([…], time 7 day): 14 s; Plat ([…], time 7 day): 122.4 x10_4/uL; RBC ([…], time 7 day): 652.2 x10_4/ul; Ret ([…], time 7 day): 5.9%; WBC ([…], time 7 day): 96 x10_2/uL; APTT ([…], time 14 day): 23.3 s; Bas ([…], time 14 day): 0.2%; Eos ([…], time 14 day): 1%; Fbg ([…], time 14 day): 375.6 mg/dL; Hb ([…], time 14 day): 14.7 g/dL; Ht ([…], time 14 day): 43.5%; Lym ([…], time 14 day): 81.2%; MCH ([…], time 14 day): 20.2 pg; MCHC ([…], time 14 day): 33.8%; MCV ([…], time 14 day): 59.8 fL; Mono ([…], time 14 day): 2.2%; Neu ([…], time 14 day): 15.2%; PT ([…], time 14 day): 14.3 s; Plat ([…], time 14 day): 133 x10_4/uL; RBC ([…], time 14 day): 727 x10_4/ul; Ret ([…], time 14 day): 5.2%; WBC ([…], time 14 day): 103.7 x10_2/uL; APTT ([…], time 28 day): 17.4 s; Bas ([…], time 28 day): 0.4%; Eos ([…], time 28 day): 1.2%; Fbg ([…], time 28 day): 485.2 mg/dL; Hb ([…], time 28 day): 14.4 g/dL; Ht ([…], time 28 day): 42.7%; Lym ([…], time 28 day): 78%; MCH ([…], time 28 day): 18.7 pg; MCHC ([…], time 28 day): 33.8%; MCV ([…], time 28 day): 55.4 fL; Mono ([…], time 28 day): 2.6%; Neu ([…], time 28 day): 17.2%; PT ([…], time 28 day): 14.7 s; Plat ([…], time 28 day): 132.7 x10_4/uL; RBC ([…], time 28 day): 770 x10_4/ul; Ret ([…], time 28 day): 3.1%; WBC ([…], time 28 day): 131.5 x10_2/uL; KIDNEY_L ([…], time 7 day): 1.2 g; KIDNEY_R ([…], time 7 day): 1.1 g; KIDNEY_TOTAL ([…], time 7 day): 2.3 g; KIDNEY_L ([…], time 14 day): 1.2 g; KIDNEY_R ([…], time 14 day): 1.3 g; KIDNEY_TOTAL ([…], time 14 day): 2.5 g; KIDNEY_L ([…], time 28 day): 1.4 g; KIDNEY_R ([…], time 28 day): 1.4 g; KIDNEY_TOTAL ([…], time 28 day): 2.9 g; LIVER ([…], time 7 day): 12.2 g; LIVER ([…], time 14 day): 13.6 g; LIVER ([…], time 28 day): 15.6 g; A/G ([…], time 7 day): 0.9; ALP ([…], time 7 day): 1362.2 IU/L; ALT ([…], time 7 day): 38.6 IU/L; AST ([…], time 7 day): 61 IU/L; BUN ([…], time 7 day): 15.6 mg/dL; CRE ([…], time 7 day): 0.2 mg/dL; Ca ([…], time 7 day): 10.8 mg/dL; Cl ([…], time 7 day): 103.8 meq/L; DBIL ([…], time 7 day): 0.012 mg/dL; GLC ([…], time 7 day): 189.4 mg/dL; IP ([…], time 7 day): 7.2 mg/dL; K ([…], time 7 day): 4 meq/L; LDH ([…], time 7 day): 67.4 IU/L; Na ([…], time 7 day): 141.6 meq/L; PL ([…], time 7 day): 164.8 mg/dL; RALB ([…], time 7 day): 2.7 g/dL; TBIL ([…], time 7 day): 0.034 mg/dL; TC ([…], time 7 day): 85.4 mg/dL; TG ([…], time 7 day): 113.4 mg/dL; TP ([…], time 7 day): 5.7 g/dL; gamma-GTP ([…], time 7 day): 1 IU/L; A/G ([…], time 14 day): 0.9; ALP ([…], time 14 day): 1395 IU/L; ALT ([…], time 14 day): 41.8 IU/L; AST ([…], time 14 day): 64.2 IU/L; BUN ([…], time 14 day): 15.4 mg/dL; CRE ([…], time 14 day): 0.2 mg/dL; Ca ([…], time 14 day): 10.9 mg/dL; Cl ([…], time 14 day): 105 meq/L; DBIL ([…], time 14 day): 0.008 mg/dL; GLC ([…], time 14 day): 176.4 mg/dL; IP ([…], time 14 day): 7.2 mg/dL; K ([…], time 14 day): 3.9 meq/L; LDH ([…], time 14 day): 100.2 IU/L; Na ([…], time 14 day): 142.8 meq/L; PL ([…], time 14 day): 160.2 mg/dL; RALB ([…], time 14 day): 2.8 g/dL; TBIL ([…], time 14 day): 0.04 mg/dL; TC ([…], time 14 day): 80.4 mg/dL; TG ([…], time 14 day): 119.2 mg/dL; TP ([…], time 14 day): 6 g/dL; gamma-GTP ([…], time 14 day): 1 IU/L; A/G ([…], time 28 day): 0.9; ALP ([…], time 28 day): 911.4 IU/L; ALT ([…], time 28 day): 33.8 IU/L; AST ([…], time 28 day): 56.8 IU/L; BUN ([…], time 28 day): 14.8 mg/dL; CRE ([…], time 28 day): 0.2 mg/dL; Ca ([…], time 28 day): 10.8 mg/dL; Cl ([…], time 28 day): 105.6 meq/L; DBIL ([…], time 28 day): 0.008 mg/dL; GLC ([…], time 28 day): 186.8 mg/dL; IP ([…], time 28 day): 6.2 mg/dL; K ([…], time 28 day): 3.6 meq/L; LDH ([…], time 28 day): 60.6 IU/L; Na ([…], time 28 day): 144 meq/L; PL ([…], time 28 day): 147 mg/dL; RALB ([…], time 28 day): 2.8 g/dL; TBIL ([…], time 28 day): 0.072 mg/dL; TC ([…], time 28 day): 77 mg/dL; TG ([…], time 28 day): 87.8 mg/dL; TP ([…], time 28 day): 6.1 g/dL; gamma-GTP ([…], time 28 day): 1 IU/L
